Measured values published in patent publication US20260069699A1, “Hybrid Curcumin Conjugates And Methods Of Use Thereof” (AUGUSTA UNIVERSITY RESEARCH INSTITUTE, INC., priority 2020, published 2026).

Experiments:
MDA-MB231 (MB231) cells = assay: MTT cell proliferation assay, MB231 cells; format: cell-based, human
Protocol: (§1) We tested the antitumor potential of All the synthesized six DCA-curcumin hybrid conjugates (CMC 1-CMC 6) with two different human breast cancer cell lines [T47D, an ER-positive BC cell line and MDA-MB231 (MB231), a triple-receptor negative BC (TNBC) cell line] using the colorimetric MTT (3-(4,5-dimethylthiazol-2yl)-2,5-diphenyltetrazolium bromide) cell proliferation assay kit.
(§2) […] and MB231 cells (5×10^3) were seed in 96-well plates and left them in the cell culture incubator at 37° C. with 5% CO2 in DMEM and RPMI medium (100 μl), respectively. After 24 h, the medium was replaced with the CMC compounds at different concentrations (0, 1, 5, and 10 μM) for 72 h. After 72 h, 10 μl Reliablue reagent was added to each well and incubated for 2 h for the formation of purple formazan and then added 100 μl of detergent to dissociate the formazan precipitate and measured at 570 nm. Values are shown as mean±SEM of three experiments with 6 wells in each, a total of 18 repeats.

T47D cells = assay: MTT cell proliferation assay, T47D cells; format: cell-based, human; settings: 72 h
Protocol: as §1, §2

MMTV-PyMT-Tg mice = assay: Tumor growth in genetically engineered mouse (GEM) model of breast cancer; format: in vivo; settings: 10 mg/kg body, three times a week by oral gavage for 7 weeks
Protocol: The antitumor potential of one of the most potential CMC compound, CMC2, in genetically engineered mouse (GEM) model of breast cancer, MMTV-PyMT-Tg mice was tested. The MMTV-PyMT-Tg mouse was mainly chosen because the tumor formation and progression in this mouse is characterized by four different stages (hyperplasia, adenoma/mammary intra-epithelial neoplasia, early and late carcinoma) and also mimics human breast cancer, the tumor develops first as ER-positive (ER^+) but ultimately becomes ER-negative BC (ER^− BC).
It was randomly assigned 6-week-old MMTV-PyMT-Tg mice into two groups (3 mice in each); one control and one CMC2 treated (10 mg/kg body, three times a week by oral gavage for 7 weeks). Tumor volume was measured twice a week and the volume was calculated using the formula V=L×W^2/2, where L represents the largest tumor diameter and W represents the smallest tumor diameter. After the experimental period, tumor tissues were collected, a picture was taken, and tumor weight was measured. Tissue sections were prepared from the tumor tissue and stained for Hematoxylin and Eosin (H & E) section and also stained for the Ki67 for cell proliferation. Tissue sections and H & E sections were prepared from the Augusta University Histology core facility.
Six-week-old MMTV-PyMT-Tg mice were treated with CMC2 (10 mg/kg body for 3× a week for 7 weeks. Control mice received PBS. Tumor volume was measured twice a week and calculated (A). After the experimental period, tumor size (B) and tumor weight (C) were also analyzed. Tissue sections were prepared and stained with H & E and Ki67 (D). Values are shown as mean±SD of three mice in each.

FVB/N mice = assay: Adverse effects and toxicity in normal mice; format: in vivo, mouse; settings: oral gavage 50 and 100 mg/kg body, 7 days
Protocol: Adverse effects and toxicity to the normal cells are the most challenging part of the anticancer drug development process. […] The body weight and any side effects of contraindication monitored during the period.
Control mice received PBS. After one weak of drug administration, mouse weight was measured every day for 7 days. We used 3 mice in each group. (A) Body weight changes in control mice (B and C) Body weight changes in CMC1 (50 and 100 mg/kg body). (D and E) Body weight changes in CMC1 (50 and 100 mg/kg body) Computational Studies: […]

| Structure (SMILES) | EC50 (MDA-MB231 (MB231) cells; 72 h) [nM] | EC50 (T47D cells) [nM] | EC50 (MDA-MB231 (MB231) cells; Homo sapiens, MDA-MB-231, 72 h) [nM] | tumor growth (tumor volume) (MMTV-PyMT-Tg mice) | tumor size (MMTV-PyMT-Tg mice) | tumor weight (MMTV-PyMT-Tg mice) | contraindication / side effects (FVB/N mice) | mouse growth (body weight) (FVB/N mice) |
| --- | --- | --- | --- | --- | --- | --- | --- | --- |
| COc1cc(/C=C/C(=O)/C=C(O)/C=C/c2ccc(OC(=O)CNC(=O)C(Cl)Cl)c(OC)c2)ccc1OC(=O)CNC(=O)C(Cl)Cl [CMC 2] | 778 | 1420 | – | significantly reduced | significantly reduced | significantly reduced | no contraindication | normal |
| COc1cc(/C=C/C(=O)/C=C(O)/C=C/c2ccc(OC(=O)C(Cl)Cl)c(OC)c2)ccc1OC(=O)C(Cl)Cl [CMC 1] | – | – | 424 | – | – | – | no contraindication | normal |
| COc1cc(/C=C/C(=O)/C=C(O)/C=C/c2ccc(OC(=O)[C@H](Cc3ccccc3)NC(=O)C(Cl)Cl)c(OC)c2)ccc1OC(=O)[C@H](Cc1ccccc1)NC(=O)C(Cl)Cl [CMC 5] | 838 | 1240 | – | – | – | – | – | – |

Continued, in another order:

| EC50 (MDA-MB231 (MB231) cells; 72 h) [nM] | EC50 (T47D cells) [nM] | EC50 (MDA-MB231 (MB231) cells; Homo sapiens, MDA-MB-231, 72 h) [nM] | Structure (SMILES) | tumor growth (tumor volume) (MMTV-PyMT-Tg mice) | tumor size (MMTV-PyMT-Tg mice) | tumor weight (MMTV-PyMT-Tg mice) | contraindication / side effects (FVB/N mice) | mouse growth (body weight) (FVB/N mice) |
| --- | --- | --- | --- | --- | --- | --- | --- | --- |
| 518 | 1600 | – | COc1cc(/C=C/C(=O)/C=C(O)/C=C/c2ccc(OC(=O)[C@H](C)NC(=O)C(Cl)Cl)c(OC)c2)ccc1OC(=O)[C@H](C)NC(=O)C(Cl)Cl [CMC 3] | – | – | – | – | – |
| 1130 | 1260 | – | COc1cc(/C=C/C(=O)/C=C(O)/C=C/c2ccc(OC(=O)CCNC(=O)C(Cl)Cl)c(OC)c2)ccc1OC(=O)CCNC(=O)C(Cl)Cl [CMC 4] | – | – | – | – | – |
| 942 | 1370 | – | COc1cc(/C=C/C(=O)/C=C(O)/C=C/c2ccc(OC(=O)CCCNC(=O)C(Cl)Cl)c(OC)c2)ccc1OC(=O)CCCNC(=O)C(Cl)Cl [CMC 6] | – | – | – | – | – |
